In ChEMBL document CHEMBL1121483, “Thrombin inhibitors. 1. Ester derivatives of N alpha-(arylsulfonyl)-L-arginine” (J Med Chem, 1980):
pIC50: −log10 of the molar value.

target: T1, Prothrombin (Bos taurus, UniProt P00735); assay: Concentration at which the clotting time was prolonged by twice the control was determined using commercial topical bovine thrombin.; type: functional; conditions: not given

Row | pIC50 | SMILES
1 | 2.70 | COC(=O)C(CCCN=C(N)N)NS(=O)(=O)c1cccc2c(N(C)C)cccc12 (configuration not stated)

target: T1, Prothrombin; assay: Concentration at which the clotting time was prolonged by twice the control was determined using topical bovine thrombin; type: functional; conditions: read-out: I50

Row | pIC50 | SMILES
2 | 3.89 | COC(=O)C(CCCN=C(N)N)NS(=O)(=O)c1ccc2ccccc2c1 (configuration not stated)
3 | 4.00 | COC(=O)C(CCCNC(=N)N)NS(=O)(=O)c1ccc(OC)cc1 (configuration not stated)
4 | 2.32 | COC(=O)C(CCCN=C(N)N)NS(=O)(=O)c1ccc(N)cc1 (configuration not stated)
5 | 2.54 | COC(=O)C(CCCN=C(N)N)NS(=O)(=O)c1cccc([N+](=O)[O-])c1 (configuration not stated)
6 | 2.28 | COC(=O)C(CCCN=C(N)N)NS(=O)(=O)c1ccc(F)cc1 (configuration not stated)
7 | 2.62 | COC(=O)C(CCCN=C(N)N)NS(=O)(=O)c1ccc([N+](=O)[O-])cc1 (configuration not stated)
8 | 2.57 | COC(=O)C(CCCNC(=N)N)NS(=O)(=O)c1ccc(Cl)cc1 (configuration not stated)
9 | 4.00 | COC(=O)C(CCCN=C(N)N)NS(=O)(=O)c1cccc2cc(N(C)C)ccc12 (configuration not stated)

The remaining lines, values behind:

Row | SMILES | pIC50
10 | CCCCCOC(=O)C(CCCN=C(N)N)NS(=O)(=O)c1cccc2c(N(C)C)cccc12 (configuration not stated) | 4.31
11 | CC(C)COC(=O)C(CCCN=C(N)N)NS(=O)(=O)c1cccc2c(N(C)C)cccc12 (configuration not stated) | 5.00
12 | COC(=O)C(CCCNC(=N)N)NS(=O)(=O)c1cccc2ccccc12 (configuration not stated) | 3.28
13 | CN(C)c1cccc2c(S(=O)(=O)NC(CCCN=C(N)N)C(=O)OC3CCCCC3)cccc12 (configuration not stated) | 4.22
14 | CCCOC(=O)C(CCCN=C(N)N)NS(=O)(=O)c1cccc2c(N(C)C)cccc12 (configuration not stated) | 5.70
15 | CN(C)c1cccc2c(S(=O)(=O)NC(CCCNC(=N)N)C(=O)OCc3ccccc3)cccc12 (configuration not stated) | 5.70
16 | C#CCCOC(=O)C(CCCN=C(N)N)NS(=O)(=O)c1cccc2c(N(C)C)cccc12 (configuration not stated) | 5.40
17 | CCOC(=O)C(CCCNC(=N)N)NS(=O)(=O)c1cccc2c(N(C)C)cccc12 (configuration not stated) | 5.10
18 | CC(C)OC(=O)C(CCCNC(=N)N)NS(=O)(=O)c1cccc2c(N(C)C)cccc12 (configuration not stated) | 4.52
19 | COC(=O)C(CCCN=C(N)N)NS(=O)(=O)c1cccc2c(N(C)C)cccc12 (configuration not stated) | 4.70
20 | COCCOC(=O)C(CCCNC(=N)N)NS(=O)(=O)c1cccc2c(N(C)C)cccc12 (configuration not stated) | 5.30
21 | CCC(C)OC(=O)C(CCCNC(=N)N)NS(=O)(=O)c1cccc2c(N(C)C)cccc12 (configuration not stated) | 2.70
22 | CCC(COC(=O)C(CCCN=C(N)N)NS(=O)(=O)c1cccc2c(N(C)C)cccc12)[N+](=O)[O-] (configuration not stated) | 3.70
23 | C/C=C/COC(=O)C(CCCNC(=N)N)NS(=O)(=O)c1cccc2c(N(C)C)cccc12 (configuration not stated) | 5.70
24 | CN(C)c1cccc2c(S(=O)(=O)NC(CCCN=C(N)N)C(=O)O)cccc12 (configuration not stated) | < 3.00
25 | CN(C)c1cccc2c(S(=O)(=O)NC(CCCNC(=N)N)C(=O)OCC3CCCO3)cccc12 (configuration not stated) | 4.70

target: Serine protease 1 (Homo sapiens) (UniProt P07477); assay: Rate of hydrolysis by trypsin relative to TAME; conditions: not given
Sequence (P07477 whole entry): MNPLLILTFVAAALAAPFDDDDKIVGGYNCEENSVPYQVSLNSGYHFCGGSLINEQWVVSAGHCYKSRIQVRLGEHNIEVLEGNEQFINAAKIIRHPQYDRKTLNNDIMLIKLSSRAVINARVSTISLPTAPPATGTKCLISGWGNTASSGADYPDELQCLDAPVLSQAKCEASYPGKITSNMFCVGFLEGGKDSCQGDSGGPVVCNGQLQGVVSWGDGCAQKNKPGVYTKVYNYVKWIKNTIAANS

Row | Relative hydrolysis | SMILES
26 | 0.5 | CN(C)c1cccc2c(S(=O)(=O)NC(CCCN=C(N)N)C(=O)OCCCCl)cccc12 (configuration not stated)

target: Prothrombin (Bos taurus) (UniProt P00735); assay: Rate of hydrolysis by thrombin relative to TAME; conditions: not given

Row | Relative hydrolysis | SMILES
27 | 0.084 | CN(C)c1cccc2c(S(=O)(=O)NC(CCCN=C(N)N)C(=O)OCCCCl)cccc12 (configuration not stated)
